Measurements taken from the kinase profiling compilation of Christmann-Franck et al. (2016).

Tests used:
Test in all cases: KINOMEscan competition binding
Conditions in all cases: compound 10.0 µM
MYO3A (human) = MYO3A (human) (UniProt Q8NEV4)
ITK (human) = ITK (human) (UniProt Q08881)
AXL (human) = AXL (human) (UniProt P30530)
SRPK3 (human) = SRPK3 (human) (UniProt Q9UPE1)
EPHB4 (human) = EPHB4 (human) (UniProt P54760)
RPS6KA4 KD1 (human) = RPS6KA4 KD1 (human) (UniProt O75676)
RIOK3 (human) = RIOK3 (human) (UniProt O14730)
TGFBR1 (human) = TGFBR1 (human) (UniProt P36897)
ADCK4 (human) = ADCK4 (human) (UniProt Q96D53)
NEK1 (human) = NEK1 (human) (UniProt Q96PY6)
IGF1R (human) = IGF1R (human) (UniProt P08069)
PRKD3 (human) = PRKD3 (human) (UniProt O94806)
TEC (human) = TEC (human) (UniProt P42680)
STK25 (human) = STK25 (human) (UniProt O00506)
FGFR4 (human) = FGFR4 (human) (UniProt P22455)
PTK2 (human) = PTK2 (human) (UniProt Q05397)
ULK2 (human) = ULK2 (human) (UniProt Q8IYT8)
CAMK1G (human) = CAMK1G (human) (UniProt Q96NX5)
AAK1 (human) = AAK1 (human) (UniProt Q2M2I8)
IKBKB (human) = IKBKB (human) (UniProt O14920)
EPHA7 (human) = EPHA7 (human) (UniProt Q15375)
PRKCD (human) = PRKCD (human) (UniProt Q05655)
PLK4 (human) = PLK4 (human) (UniProt O00444)
[1] = molecular target: JAK1 JH2 pseudokinase (human) (UniProt P23458)
TNK1 (human) = TNK1 (human) (UniProt Q13470)
HCK (human) = HCK (human) (UniProt P08631)
PKN2 (human) = PKN2 (human) (UniProt Q16513)
PDPK1 (human) = PDPK1 (human) (UniProt O15530)
RPS6KA2 KD2 (human) = RPS6KA2 KD2 (human) (UniProt Q15349)
ACVR1 (human) = ACVR1 (human) (UniProt Q04771)
PKMYT1 (human) = PKMYT1 (human) (UniProt Q99640)
STK3 (human) = STK3 (human) (UniProt Q13188)
[2] = tested on: FLT3 (human), P36888 [ITD]
LIMK1 (human) = LIMK1 (human) (UniProt P53667)
PKN1 (human) = PKN1 (human) (UniProt Q16512)
ABL2 (human) = ABL2 (human) (UniProt P42684)
WEE2 (human) = WEE2 (human) (UniProt P0C1S8)
STK32C (human) = STK32C (human) (UniProt Q86UX6)
MARK4 (human) = MARK4 (human) (UniProt Q96L34)

Chain of HCK (human) (P08631 whole entry, looked up): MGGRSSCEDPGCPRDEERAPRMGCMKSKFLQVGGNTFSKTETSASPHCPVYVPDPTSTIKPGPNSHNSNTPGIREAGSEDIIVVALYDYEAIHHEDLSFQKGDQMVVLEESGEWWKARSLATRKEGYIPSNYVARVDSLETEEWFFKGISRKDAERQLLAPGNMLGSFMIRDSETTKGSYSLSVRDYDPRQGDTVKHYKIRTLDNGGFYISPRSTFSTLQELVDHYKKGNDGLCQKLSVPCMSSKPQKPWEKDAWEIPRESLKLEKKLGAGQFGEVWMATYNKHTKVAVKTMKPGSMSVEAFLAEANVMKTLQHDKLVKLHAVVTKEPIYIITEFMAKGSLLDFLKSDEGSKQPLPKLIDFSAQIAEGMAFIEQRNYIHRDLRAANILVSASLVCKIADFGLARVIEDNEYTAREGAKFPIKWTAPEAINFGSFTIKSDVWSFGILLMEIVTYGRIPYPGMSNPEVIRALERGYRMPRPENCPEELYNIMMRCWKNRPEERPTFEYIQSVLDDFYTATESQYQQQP
Chain of LIMK1 (human) (P53667 whole entry, looked up): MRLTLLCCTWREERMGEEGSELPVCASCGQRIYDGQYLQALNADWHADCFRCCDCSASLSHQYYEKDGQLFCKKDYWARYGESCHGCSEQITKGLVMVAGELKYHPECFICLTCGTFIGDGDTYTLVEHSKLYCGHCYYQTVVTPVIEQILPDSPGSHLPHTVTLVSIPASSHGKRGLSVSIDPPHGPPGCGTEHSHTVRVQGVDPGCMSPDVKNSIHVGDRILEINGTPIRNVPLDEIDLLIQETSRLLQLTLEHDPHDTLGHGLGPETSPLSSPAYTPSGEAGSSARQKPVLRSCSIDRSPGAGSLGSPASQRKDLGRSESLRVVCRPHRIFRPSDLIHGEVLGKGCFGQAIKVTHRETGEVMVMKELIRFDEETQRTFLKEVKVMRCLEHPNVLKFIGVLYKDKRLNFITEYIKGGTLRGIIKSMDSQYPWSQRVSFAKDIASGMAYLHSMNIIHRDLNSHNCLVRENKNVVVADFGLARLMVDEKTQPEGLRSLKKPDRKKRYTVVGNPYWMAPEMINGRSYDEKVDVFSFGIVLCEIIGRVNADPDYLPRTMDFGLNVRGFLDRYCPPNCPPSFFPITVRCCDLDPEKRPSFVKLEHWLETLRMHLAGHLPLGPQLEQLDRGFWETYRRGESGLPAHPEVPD
Chain of ULK2 (human) (Q8IYT8 whole entry, looked up): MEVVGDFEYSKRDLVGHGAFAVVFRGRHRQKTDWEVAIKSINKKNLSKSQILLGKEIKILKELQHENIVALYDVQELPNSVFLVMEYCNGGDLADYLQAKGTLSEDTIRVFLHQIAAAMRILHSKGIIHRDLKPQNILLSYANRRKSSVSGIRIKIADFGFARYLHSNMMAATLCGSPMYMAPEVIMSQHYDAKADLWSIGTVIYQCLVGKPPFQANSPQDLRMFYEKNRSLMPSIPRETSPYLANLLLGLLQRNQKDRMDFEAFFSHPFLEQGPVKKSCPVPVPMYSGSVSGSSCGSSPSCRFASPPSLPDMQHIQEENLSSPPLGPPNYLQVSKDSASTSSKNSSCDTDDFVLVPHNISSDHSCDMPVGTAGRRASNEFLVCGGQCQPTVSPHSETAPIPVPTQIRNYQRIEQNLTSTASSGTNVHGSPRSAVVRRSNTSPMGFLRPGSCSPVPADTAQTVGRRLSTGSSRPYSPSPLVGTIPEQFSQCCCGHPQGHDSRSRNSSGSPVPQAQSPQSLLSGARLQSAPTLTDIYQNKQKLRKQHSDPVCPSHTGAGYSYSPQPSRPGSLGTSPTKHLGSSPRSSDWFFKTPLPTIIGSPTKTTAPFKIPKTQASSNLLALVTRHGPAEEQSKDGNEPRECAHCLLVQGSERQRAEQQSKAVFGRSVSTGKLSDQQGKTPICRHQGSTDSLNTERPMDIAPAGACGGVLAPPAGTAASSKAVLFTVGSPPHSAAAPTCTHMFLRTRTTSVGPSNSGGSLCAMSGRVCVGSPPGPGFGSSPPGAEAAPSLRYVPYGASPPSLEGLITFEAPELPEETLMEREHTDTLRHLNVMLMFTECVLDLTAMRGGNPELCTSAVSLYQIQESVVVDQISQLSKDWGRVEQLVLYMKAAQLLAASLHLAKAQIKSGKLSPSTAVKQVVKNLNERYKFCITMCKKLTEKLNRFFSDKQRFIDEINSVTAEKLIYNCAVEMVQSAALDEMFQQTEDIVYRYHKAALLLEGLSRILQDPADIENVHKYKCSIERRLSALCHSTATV
Chain of ADCK4 (human) (Q96D53 whole entry, looked up): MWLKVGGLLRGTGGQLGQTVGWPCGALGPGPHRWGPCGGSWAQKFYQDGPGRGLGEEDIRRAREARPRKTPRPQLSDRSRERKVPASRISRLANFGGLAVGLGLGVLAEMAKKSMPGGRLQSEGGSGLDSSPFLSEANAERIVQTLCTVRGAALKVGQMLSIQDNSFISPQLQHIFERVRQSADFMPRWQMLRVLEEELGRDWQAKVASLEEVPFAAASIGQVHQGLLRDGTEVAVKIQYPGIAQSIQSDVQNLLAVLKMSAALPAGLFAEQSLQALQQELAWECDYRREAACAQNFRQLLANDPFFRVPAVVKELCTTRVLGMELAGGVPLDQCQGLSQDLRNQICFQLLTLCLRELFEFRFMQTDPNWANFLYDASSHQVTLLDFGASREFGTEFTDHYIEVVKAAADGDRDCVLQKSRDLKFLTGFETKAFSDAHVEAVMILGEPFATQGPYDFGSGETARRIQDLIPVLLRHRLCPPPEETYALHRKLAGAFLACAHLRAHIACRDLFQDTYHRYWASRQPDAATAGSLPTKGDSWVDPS
Chain of TGFBR1 (human) (P36897 whole entry, looked up): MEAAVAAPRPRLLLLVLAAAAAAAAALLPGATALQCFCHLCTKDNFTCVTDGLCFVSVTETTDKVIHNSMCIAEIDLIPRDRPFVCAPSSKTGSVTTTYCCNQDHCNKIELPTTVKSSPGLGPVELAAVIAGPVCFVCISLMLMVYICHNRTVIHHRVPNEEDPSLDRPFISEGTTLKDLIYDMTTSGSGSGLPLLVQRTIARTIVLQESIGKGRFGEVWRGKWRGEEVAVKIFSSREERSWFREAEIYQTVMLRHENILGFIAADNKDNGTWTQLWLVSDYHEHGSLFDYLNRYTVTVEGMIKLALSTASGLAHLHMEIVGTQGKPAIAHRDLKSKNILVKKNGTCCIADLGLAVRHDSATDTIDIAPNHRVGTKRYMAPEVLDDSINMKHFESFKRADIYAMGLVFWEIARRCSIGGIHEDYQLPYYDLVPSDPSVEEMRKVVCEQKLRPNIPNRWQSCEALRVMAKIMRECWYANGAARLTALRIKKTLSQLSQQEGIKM
Chain of MYO3A (human) (Q8NEV4 whole entry, looked up): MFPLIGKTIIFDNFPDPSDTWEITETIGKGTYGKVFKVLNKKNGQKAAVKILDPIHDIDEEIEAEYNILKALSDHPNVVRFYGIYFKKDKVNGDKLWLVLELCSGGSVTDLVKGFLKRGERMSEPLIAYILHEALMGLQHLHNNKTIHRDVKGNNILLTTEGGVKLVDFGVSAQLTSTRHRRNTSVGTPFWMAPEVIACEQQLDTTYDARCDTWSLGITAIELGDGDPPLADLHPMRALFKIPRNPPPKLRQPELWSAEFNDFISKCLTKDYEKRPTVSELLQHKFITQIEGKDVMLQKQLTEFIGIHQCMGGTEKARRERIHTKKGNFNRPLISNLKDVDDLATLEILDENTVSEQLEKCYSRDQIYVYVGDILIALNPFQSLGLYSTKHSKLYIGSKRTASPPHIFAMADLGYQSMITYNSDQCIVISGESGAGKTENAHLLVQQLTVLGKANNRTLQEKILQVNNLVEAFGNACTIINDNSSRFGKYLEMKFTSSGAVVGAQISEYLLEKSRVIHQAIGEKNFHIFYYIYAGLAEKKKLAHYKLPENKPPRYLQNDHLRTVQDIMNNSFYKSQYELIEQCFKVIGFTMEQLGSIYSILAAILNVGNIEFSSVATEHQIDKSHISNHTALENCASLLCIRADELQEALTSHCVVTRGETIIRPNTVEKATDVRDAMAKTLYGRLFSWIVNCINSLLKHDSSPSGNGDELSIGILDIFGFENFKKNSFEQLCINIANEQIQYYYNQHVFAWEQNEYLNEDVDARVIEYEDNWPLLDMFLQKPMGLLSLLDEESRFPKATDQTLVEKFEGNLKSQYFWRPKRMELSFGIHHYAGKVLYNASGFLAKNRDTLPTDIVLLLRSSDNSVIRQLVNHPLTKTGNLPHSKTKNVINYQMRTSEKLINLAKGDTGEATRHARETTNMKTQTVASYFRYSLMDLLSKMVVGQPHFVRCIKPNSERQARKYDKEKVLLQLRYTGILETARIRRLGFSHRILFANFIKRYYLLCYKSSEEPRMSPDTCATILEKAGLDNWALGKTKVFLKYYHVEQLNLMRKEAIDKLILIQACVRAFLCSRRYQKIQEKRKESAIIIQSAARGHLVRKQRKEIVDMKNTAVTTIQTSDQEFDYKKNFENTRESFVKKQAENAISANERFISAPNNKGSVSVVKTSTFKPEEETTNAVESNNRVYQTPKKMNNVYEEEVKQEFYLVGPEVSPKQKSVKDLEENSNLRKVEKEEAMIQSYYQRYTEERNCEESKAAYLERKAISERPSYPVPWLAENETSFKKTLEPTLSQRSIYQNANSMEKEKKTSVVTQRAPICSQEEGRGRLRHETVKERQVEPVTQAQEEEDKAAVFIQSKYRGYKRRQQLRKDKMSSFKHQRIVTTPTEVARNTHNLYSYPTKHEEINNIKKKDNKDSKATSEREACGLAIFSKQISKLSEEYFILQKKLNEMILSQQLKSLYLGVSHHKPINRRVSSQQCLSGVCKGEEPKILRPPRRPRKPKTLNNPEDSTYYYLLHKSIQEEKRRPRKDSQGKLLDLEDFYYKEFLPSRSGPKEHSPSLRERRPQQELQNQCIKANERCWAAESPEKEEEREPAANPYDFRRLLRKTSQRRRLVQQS

COc1cc(N2CCN(C)CC2)ccc1Nc1nc(N)c(C(=O)c2c(Cl)cccc2Cl)s1
kinase still bound, per cent of control (MYO3A (human)): 85%
kinase still bound, per cent of control (ITK (human)): 91%
kinase still bound, per cent of control (AXL (human)): 100%
kinase still bound, per cent of control (SRPK3 (human)): 77%
kinase still bound, per cent of control (EPHB4 (human)): 97%
kinase still bound, per cent of control (RPS6KA4 KD1 (human)): 100%
kinase still bound, per cent of control (RIOK3 (human)): 100%
kinase still bound, per cent of control (TGFBR1 (human)): 100%
kinase still bound, per cent of control (ADCK4 (human)): 81%
kinase still bound, per cent of control (NEK1 (human)): 75%
kinase still bound, per cent of control (IGF1R (human)): 72%
kinase still bound, per cent of control (PRKD3 (human)): 70%
kinase still bound, per cent of control (TEC (human)): 69%
kinase still bound, per cent of control (STK25 (human)): 66%
kinase still bound, per cent of control (FGFR4 (human)): 89%
kinase still bound, per cent of control (PTK2 (human)): 62%
kinase still bound, per cent of control (ULK2 (human)): 72%
kinase still bound, per cent of control (CAMK1G (human)): 42%
kinase still bound, per cent of control (AAK1 (human)): 61%
kinase still bound, per cent of control (IKBKB (human)): 96%
kinase still bound, per cent of control (EPHA7 (human)): 88%
kinase still bound, per cent of control (PRKCD (human)): 68%
kinase still bound, per cent of control (PLK4 (human)): 100%
kinase still bound, per cent of control [1]: 100%
kinase still bound, per cent of control (TNK1 (human)): 100%
kinase still bound, per cent of control (HCK (human)): 100%
kinase still bound, per cent of control (PKN2 (human)): 98%
kinase still bound, per cent of control (PDPK1 (human)): 100%
kinase still bound, per cent of control (RPS6KA2 KD2 (human)): 2.9%
kinase still bound, per cent of control (ACVR1 (human)): 100%
kinase still bound, per cent of control (PKMYT1 (human)): 100%
kinase still bound, per cent of control (STK3 (human)): 85%
kinase still bound, per cent of control [2]: 87%
kinase still bound, per cent of control (LIMK1 (human)): 74%
kinase still bound, per cent of control (PKN1 (human)): 100%
kinase still bound, per cent of control (ABL2 (human)): 82%
kinase still bound, per cent of control (WEE2 (human)): 100%
kinase still bound, per cent of control (STK32C (human)): 99%
kinase still bound, per cent of control (MARK4 (human)): 82%
